Reference: patent US12207672B2, “Compounds that modulate GPR92 receptor activity and pet food products containing the same” (MARS, INCORPORATED, priority 2018, dated 2025)

Tested on: fGPR92 receptor
Assay: fGPR92 activation in CHO-K1 cells, calcium sensitive fluorescent dye (FLIPR Tetra), agonist mode
Type: cell-based, cat
Details: CHO-K1 cells stably expressing fGPR92
Method: The present example describes the activation of the cat GPR92 receptor (fGPR92) by various compounds and compositions in vitro. Samples that can function as GPR92 agonists were identified by in vitro functional characterization. The effectiveness of a sample in activating the fGPR92 receptor was evaluated. Methods: CHO-Kl cells stably expressing fGPR92 were used to screen 118 test samples to identify samples that can activate the fGPR92 receptor. Activation of the fGPR92 receptor was detected by changes in intracellular calcium levels using a calcium sensitive fluorescent dye. Cells without fGPR92 receptor expression (mock cells) were used as a control. A FLIPR® Tetra system was used for data capture. Each sample was first tested for its ability to activate fGPR92 at three different dose levels in both agonist mode and positive allosteric modulator mode. Active samples were further tested at eight different dose levels in both agonist mode and positive allosteric modulator mode. Peptone from Sigma-Aldrich (product number: P5905; CAS number 73049-73-7) was used in this Example. Dose response curves were then generated for each sample. Menthol and cinnamaldehyde were used as negative controls. In the agonist mode (AGO), 14:0 LPA at 10 μM (EC100) was used as a positive control and the assay buffer was used as a negative control. […]

Row | SMILES | activation of fGPR92 receptor
1 | O=C/C=C/c1ccccc1 [cinnamaldehyde, cinnamic aldehyde] | did not activate fGPR92 receptor
2 | CC(C)[C@@H]1CC[C@@H](C)C[C@H]1O [Menthol, L-menthol] | did not activate fGPR92 receptor
